This note sets out measurements from BindingDB's records for doi:10.1021/jm00123a006 (University of Pennsylvania, 1989).

Each structure is given as a SMILES string.

The target of the assay is 5-HT1A receptor (Bos taurus). Kind of assay: In vitro inhibition of [3H]5-HT (2 nM) binding to 5-hydroxytryptamine 1A receptor from bovine hippocampus.

The IC50 is the midpoint of a concentration-inhibition curve. Higher therefore signals lower potency.

`[N-]=[N+]=Nc1ccc(CCN2CCN(c3cccc(C(F)(F)F)c3)CC2)cc1I`: the half-maximal inhibitory concentration (IC50) stood at 35 nM.
